PubChem BioAssay (NCI)
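96-well plates; 48 h exposure; 5 concentrations. Endpoints by linear interpolation between flanking doses. Not reached: highest tested concentration assigned. Here, GI50 denotes the concentration required for 50% inhibition of growth. TGI is the concentration that stops growth completely.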

Assays:
Experiment in all cases: DTP human tumour cell line panel, 48 h
SF-539 CNS = tested on: SF-539 CNS
SNB-19 CNS = tested on: SNB-19 CNS
EKVX NSCLC = tested on: EKVX NSCLC
ACHN renal = tested on: ACHN renal
PC-3 prostate = tested on: PC-3 prostate
OVCAR-4 ovarian = tested on: OVCAR-4 ovarian
SNB-75 CNS = tested on: SNB-75 CNS
CCRF-CEM leukemia = tested on: CCRF-CEM leukemia
SF-268 CNS = tested on: SF-268 CNS
CAKI-1 renal = tested on: CAKI-1 renal
KM12 colon = tested on: KM12 colon
HS 578T breast = tested on: HS 578T breast
HCT-15 colon = tested on: HCT-15 colon
MDA-MB-468 breast = tested on: MDA-MB-468 breast
MDA-MB-435 = tested on: MDA-MB-435
SN12C renal = tested on: SN12C renal
HOP-92 NSCLC = tested on: HOP-92 NSCLC
NCI-H226 lung = tested on: NCI-H226 lung
786-0 renal = tested on: 786-0 renal
NCI-H460 lung = tested on: NCI-H460 lung
HCC-2998 colon = tested on: HCC-2998 colon
OVCAR-5 ovarian = tested on: OVCAR-5 ovarian
UO-31 renal = tested on: UO-31 renal
HL-60(TB) leukemia = tested on: HL-60(TB) leukemia
HT29 colon = tested on: HT29 colon
DU-145 prostate = tested on: DU-145 prostate
SW-620 colon = tested on: SW-620 colon
UACC-62 melanoma = tested on: UACC-62 melanoma
TK-10 renal = tested on: TK-10 renal
SK-MEL-5 melanoma = tested on: SK-MEL-5 melanoma

## S=C(Nc1ccc(OCc2nc3ccc(Cl)cc3[nH]2)cc1)NC1CCCCC1
SF-539 CNS
  TGI: 24.5 µM
SNB-19 CNS
  GI50: 10.7 µM
  TGI: 22.6 µM
EKVX NSCLC
  GI50: 7.23 µM
  TGI: 20.9 µM
ACHN renal
  GI50: 4.99 µM
  TGI: 17.4 µM
PC-3 prostate
  GI50: 4.29 µM
  TGI: 18.7 µM
OVCAR-4 ovarian
  GI50: 6.82 µM
  TGI: 25.1 µM
SNB-75 CNS
  GI50: 1.79 µM
  TGI: 15.2 µM
CCRF-CEM leukemia
  GI50: 3.59 µM
  TGI: 16.6 µM
SF-268 CNS
  GI50: 8.19 µM
  TGI: 24.5 µM
CAKI-1 renal
  GI50: 3.47 µM
  TGI: 15.5 µM
KM12 colon
  GI50: 4.8 µM
  TGI: 17.5 µM
HS 578T breast
  GI50: 7.33 µM
  TGI: 28.7 µM
HCT-15 colon
  GI50: 5.5 µM
  TGI: 18.7 µM
MDA-MB-468 breast
  GI50: 2.97 µM
  TGI: 13.2 µM
MDA-MB-435
  GI50: 6.97 µM
  TGI: 22 µM
SN12C renal
  GI50: 8.32 µM
  TGI: 21.2 µM
HOP-92 NSCLC
  GI50: 3.27 µM
  TGI: 14.7 µM
NCI-H226 lung
  GI50: 10.8 µM
  TGI: 29.1 µM
786-0 renal
  GI50: 7.4 µM
  TGI: 21.4 µM
NCI-H460 lung
  GI50: 3.96 µM
  TGI: 14.2 µM
HCC-2998 colon
  GI50: 3.12 µM
  TGI: 12.5 µM
OVCAR-5 ovarian
  GI50: 10.8 µM
  TGI: 22.6 µM
UO-31 renal
  GI50: 3.88 µM
  TGI: 16.6 µM
HL-60(TB) leukemia
  GI50: 2.63 µM
  TGI: 13.2 µM
HT29 colon
  GI50: 4.44 µM
  TGI: 16 µM
DU-145 prostate
  GI50: 11.3 µM
  TGI: 27.7 µM
SW-620 colon
  GI50: 9.55 µM
  TGI: 24.2 µM
UACC-62 melanoma
  GI50: 6.68 µM
  TGI: 20.4 µM
TK-10 renal
  GI50: 12.4 µM
  TGI: 24.9 µM
SK-MEL-5 melanoma
  GI50: 5.79 µM
  TGI: 19.5 µM
